Biological target: DNA-(apurinic or apyrimidinic site) endonuclease (Homo sapiens, UniProt P27695)
Assay: APE1 Inhibition Assay
Conditions: pH 7.5; 30 °C
Method: To determine the extent of abasic residue cleavage by APE1, recombinant APE1 was preincubated with the potential inhibitors in reaction buffer. Then, the 5-end 32P-labeled oligonucleotide substrate was added. The conversion of incision product was quantitated using PhosphorImager / ImageQuant 5.2 system. The IC50 values were determined by plotting the logarithm of drug concentration against percent inhibition of enzymatic activity. The optimum concentration of APE1 protein in the assay is the concentration at which there is complete conversion of the abasic-site containing oligonucleotide substrate to its cleaved product without subsequent exonuclease activity.

DNA-(apurinic or apyrimidinic site) endonuclease, sequence (P27695 whole entry): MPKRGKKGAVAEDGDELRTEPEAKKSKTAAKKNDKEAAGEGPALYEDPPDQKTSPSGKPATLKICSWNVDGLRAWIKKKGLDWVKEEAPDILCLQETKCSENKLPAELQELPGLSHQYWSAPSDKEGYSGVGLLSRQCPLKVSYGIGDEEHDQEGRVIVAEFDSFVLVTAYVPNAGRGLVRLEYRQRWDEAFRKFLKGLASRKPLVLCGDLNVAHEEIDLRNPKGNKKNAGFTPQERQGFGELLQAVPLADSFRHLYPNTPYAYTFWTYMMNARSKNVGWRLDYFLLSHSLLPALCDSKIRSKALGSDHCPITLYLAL

- IC50: 4 µM
SMILES: O=C(O)c1ccc(Sc2ccc(S(=O)(=O)c3ccc(C(=O)O)c(C(=O)O)c3)cc2)cc1 [4-({4-[(4-carboxyphenyl)sulfanyl]benzene}sulfonyl)benzene-1,2-dicarboxylic acid]
